Source: patent publication US20240132513A1, “BENZAZEPINE DERIVATIVES, COMPOSITIONS, AND METHODS FOR TREATING COGNITIVE IMPAIRMENT” (AGENEBIO, INC., priority 2022, published 2024)
pKi: −log10 of the molar value. Where two headings read alike, the source gives them in different places.

How the values were obtained:
[1] = biological target: α5β3γ2 GABAA R (Homo sapiens, UniProt P18507+P31644); assay: Binding activity on GABAA R: inhibition of [3H]Ro15-1788 binding, α5 containing receptor
In short: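 Displacement of [3H]Ro15-1788 (flumazenil) measured at 4 °C over 1 h using 0.2 mg/ml membrane protein from Ltk cells carrying α5β3γ2 GABAA receptors, expression induced with 0.5 μM dexamethasone for 1 day; buffer pH 7.4 KH2PO4/EDTA/KCl. 10 μM diazepam defined nonspecific binding; filter-trapped radioactivity counted, in triplicate.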

[2] = biological target: T1, GABAA R (α5β2γ2) (Homo sapiens, UniProt P18507+P31644); assay: Positive allosteric modulator activity: potentiation of EC20 GABA current in oocytes; type: cell-based
T1 construct: expressed in transfected cells
Description: On day 1, 1 ng/32 nL of GABAA α5β2γ2 cDNA was injected into one oocyte. Test starts on day 2. The cDNA injected to the oocytes was a mix of alpha, beta and gamma, their ratio is 1:1:10 (by weight) and the total weight of the mixed 3 subunits to be injected in one oocyte was 1 ng in 32 nl volume. The injected oocytes can also be tested on day 3. In such case, the cDNA amount injected to the oocytes should be reduced by 20%.
Compounds of the present disclosure were tested using the following procedures.
8 oocytes were placed in 8 chambers of OpusXpress and superfused with Modified Barth's Saline (MBS) at 3 mL/min. Glass electrodes back-filled with 3M KCl (0.5-3 megaohms) were used. Membrane potential of oocytes was voltage-clamped at −60 mV. • 2).
Control Test (Diazepam or Methyl 3,5-Diphenylpyridazine-4-Carboxylate) • 1). New oocytes was used to run new test. • 2). […] Oocytes were washed with MBS for 5-10 min. • 4). […] Itest was divided by IGABA to obtain potentiation (%).
Test Compounds at Multiple Doses • 1). Repeat the above steps 1), 2) and 3) in the control test. • 2). […] Divide Itest by IGABA to obtain potentiation (%). • 3). Discard all tested oocytes, new oocytes were used and the above steps 1) and 2) were repeated to test second concentration of the same compound. Each oocyte was used for only one concentration test for a single test compound. The steps were repeated for other test compounds.

[3] = read-out: GABA α5 Functional Data: potentiation, @ 100 nM, EC20 GABA, ranges of the column heads
[4] = ranges of the column heads, [3H]Ro15-1788, Ltk cell membranes
[5] = read-out: GABA α5 Functional Data: potentiation

T1 sequence (P31644 32-462): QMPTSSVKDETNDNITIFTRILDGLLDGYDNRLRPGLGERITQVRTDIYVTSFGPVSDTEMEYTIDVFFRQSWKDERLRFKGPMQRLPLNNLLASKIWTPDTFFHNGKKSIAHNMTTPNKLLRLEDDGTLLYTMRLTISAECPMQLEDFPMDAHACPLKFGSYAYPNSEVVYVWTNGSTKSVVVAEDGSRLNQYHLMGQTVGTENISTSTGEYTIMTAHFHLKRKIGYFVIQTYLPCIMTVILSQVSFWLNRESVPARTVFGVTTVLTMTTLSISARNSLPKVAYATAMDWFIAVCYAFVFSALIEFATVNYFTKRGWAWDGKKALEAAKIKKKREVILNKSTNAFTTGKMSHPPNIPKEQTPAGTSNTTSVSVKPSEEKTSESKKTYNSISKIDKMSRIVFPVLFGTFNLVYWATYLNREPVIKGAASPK
T1 sequence (P47870 25-512 partner limits assumed): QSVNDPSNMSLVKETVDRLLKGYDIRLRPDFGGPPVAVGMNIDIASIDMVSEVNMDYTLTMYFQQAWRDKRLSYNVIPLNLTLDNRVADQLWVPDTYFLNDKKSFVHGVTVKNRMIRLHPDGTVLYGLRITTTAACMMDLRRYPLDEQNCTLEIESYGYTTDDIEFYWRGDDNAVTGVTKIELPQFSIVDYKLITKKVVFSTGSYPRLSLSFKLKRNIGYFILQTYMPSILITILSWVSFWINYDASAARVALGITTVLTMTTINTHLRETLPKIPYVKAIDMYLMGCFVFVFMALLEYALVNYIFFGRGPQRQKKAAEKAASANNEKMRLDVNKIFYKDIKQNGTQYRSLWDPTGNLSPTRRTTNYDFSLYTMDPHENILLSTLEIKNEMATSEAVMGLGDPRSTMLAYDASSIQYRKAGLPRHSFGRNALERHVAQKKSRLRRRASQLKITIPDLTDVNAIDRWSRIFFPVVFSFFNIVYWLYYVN
T1 sequence (P18507 40-475): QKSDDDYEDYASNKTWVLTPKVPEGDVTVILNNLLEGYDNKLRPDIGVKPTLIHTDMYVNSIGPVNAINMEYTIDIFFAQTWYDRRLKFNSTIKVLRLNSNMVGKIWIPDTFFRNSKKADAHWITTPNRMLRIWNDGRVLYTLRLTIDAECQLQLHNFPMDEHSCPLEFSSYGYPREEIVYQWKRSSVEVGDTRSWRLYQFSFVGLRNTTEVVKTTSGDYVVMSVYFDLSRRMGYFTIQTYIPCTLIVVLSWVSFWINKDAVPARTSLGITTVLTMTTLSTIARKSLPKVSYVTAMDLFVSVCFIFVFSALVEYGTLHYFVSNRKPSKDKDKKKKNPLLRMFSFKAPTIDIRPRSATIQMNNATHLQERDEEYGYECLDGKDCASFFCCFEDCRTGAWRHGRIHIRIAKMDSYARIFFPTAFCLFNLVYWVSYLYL
Chain of α5β3γ2 GABAA R (P31644 32-462): as the sequence (P31644 32-462) above
Chain of α5β3γ2 GABAA R (P28472 26-473 partner): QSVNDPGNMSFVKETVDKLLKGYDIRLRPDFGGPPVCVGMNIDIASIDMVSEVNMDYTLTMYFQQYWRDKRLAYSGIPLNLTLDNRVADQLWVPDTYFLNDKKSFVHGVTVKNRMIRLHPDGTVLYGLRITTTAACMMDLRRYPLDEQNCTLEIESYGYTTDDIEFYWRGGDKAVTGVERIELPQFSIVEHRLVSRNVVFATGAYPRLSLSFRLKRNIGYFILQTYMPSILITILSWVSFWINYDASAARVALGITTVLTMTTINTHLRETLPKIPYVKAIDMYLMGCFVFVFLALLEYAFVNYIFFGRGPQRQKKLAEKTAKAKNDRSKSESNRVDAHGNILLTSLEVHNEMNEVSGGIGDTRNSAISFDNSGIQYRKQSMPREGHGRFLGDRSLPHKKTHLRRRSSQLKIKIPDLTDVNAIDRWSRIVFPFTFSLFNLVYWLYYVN
Chain of α5β3γ2 GABAA R (P18507 40-475): as the sequence (P18507 40-475) above

CC(C)c1nc(-c2ncn3c2Cc2cn(C)nc2-c2cc(Cl)ccc2-3)no1 [Compound 141]
pKi [1]: > 7.00 | activation at 0.1 µM [2, 3]: 20 to 50%

Clc1ccc2c(c1)-c1[nH]ncc1Cc1c(-c3ncco3)ncn1-2 [Compound 55]
pKi [1]: > 7.00 | activation at 0.1 µM [2, 3]: 5 to 20%

COCc1coc(-c2ncn3c2Cc2cn(C)nc2-c2cc(Cl)ccc2-3)n1 [Compound 284]
pKi [1, 4]: > 7.00 | activation at 0.1 µM [2, 5]: > 50%

Cc1noc(-c2ncn3c2Cc2cn(C)nc2-c2cc(Cl)ccc2-3)n1 [Compound 121]
pKi [1]: > 7.00 | activation at 0.1 µM [2, 3]: 20 to 50%

CC(C)n1cc2c(n1)-c1cc(Cl)ccc1-n1cnc(-c3noc(C(F)(F)F)n3)c1C2 [Compound 148]
pKi [1, 4]: > 7.00 | activation at 0.1 µM [2, 5]: 5 to 20%

COc1ccc2c(c1)-c1nn(Cc3ccccn3)cc1Cc1c(-c3nc(C(C)C)no3)ncn1-2 [Compound 124]
pKi [1]: > 7.00 | activation at 0.1 µM [2, 3]: 20 to 50%

CCn1cc2c(n1)-c1cc(OC)ccc1-n1cnc(-c3nc(CN4CCCC4)no3)c1C2 [Compound 267]
pKi [1]: > 7.00 | activation at 0.1 µM [2, 3]: 5 to 20%

COc1ccc2c(c1)-c1[nH]ncc1Cc1c(C3=N[C@H](c4ccccc4)CO3)ncn1-2 [Compound 14]
pKi [1]: > 7.00 | activation at 0.1 µM [2, 3]: 5 to 20%

Cn1cc2c(n1)-c1cc(Cl)ccc1-n1cnc(-c3noc(COC4CCCC4)n3)c1C2 [Compound 211]
pKi [1]: > 7.00 | activation at 0.1 µM [2, 3]: 20 to 50%

COCc1nc(-c2ncn3c2Cc2cn(CC4CCCO4)nc2-c2cc(Cl)ccc2-3)no1 (stereo not shown) [Compound 304]
pKi [1]: > 7.00 | activation at 0.1 µM [2, 3]: 5 to 20%

CCn1cc2c(n1)-c1cc(Cl)ccc1-n1cnc(-c3nc(C)no3)c1C2 [Compound 159]
pKi [1]: > 7.00 | activation at 0.1 µM [2, 3]: 20 to 50%

COCCn1cc2c(n1)-c1cc(OC)ccc1-n1cnc(-c3noc(C(C)C)n3)c1C2 [Compound 110]
pKi [1]: > 7.00 | activation at 0.1 µM [2, 3]: 20 to 50%

COc1ccc2c(c1)-c1[nH]ncc1Cc1c(-c3nc(C(F)(F)F)no3)ncn1-2 [Compound 45]
pKi [1]: > 7.00 | activation at 0.1 µM [2, 3]: 20 to 50%

COc1ccc2c(c1)-c1[nH]ncc1Cc1c(C#Cc3cccnc3)ncn1-2 [Compound 91]
pKi [1]: > 7.00 | activation at 0.1 µM [2, 3]: 5 to 20%

COc1ccc2c(c1)-c1n[nH]cc1Cc1c(-c3noc(C(C)(C)OC)n3)ncn1-2 [Compound 181]
pKi [1, 4]: > 7.00 | activation at 0.1 µM [2, 5]: > 50%

COc1ccc2c(c1)-c1nn(CC3CCCO3)cc1Cc1c(-c3noc(COCC(F)(F)F)n3)ncn1-2 (stereo not shown) [Compound 292]
pKi [1]: > 7.00 | activation at 0.1 µM [2, 3]: 5 to 20%

COCc1noc(-c2ncn3c2Cc2cn(CCOC(F)(F)F)nc2-c2cc(OC)ccc2-3)n1 [Compound 315]
pKi [1]: > 7.00 | activation at 0.1 µM [2, 3]: 20 to 50%

Cn1cc2c(n1)-c1cc(Cl)ccc1-n1cnc(-c3nc(C4CCOCC4)no3)c1C2 [Compound 219]
pKi [1]: > 7.00 | activation at 0.1 µM [2, 3]: 5 to 20%

CCn1cc2c(n1)-c1cc(Cl)ccc1-n1cnc(-c3noc(C4(OC)CC4)n3)c1C2 [Compound 198]
pKi [1, 4]: > 7.00 | activation at 0.1 µM [2, 5]: 20 to 50%

COc1ccc2c(c1)-c1nn(C)cc1Cc1c(-c3nc(C(C)C)no3)ncn1-2 [Compound 46]
pKi [1]: > 7.00 | activation at 0.1 µM [2, 3]: 5 to 20%

COc1ccc2c(c1)-c1[nH]ncc1Cc1c(-c3nc(C(C)C)no3)ncn1-2 [Compound 10]
pKi [1]: > 7.00 | activation at 0.1 µM [2, 3]: 20 to 50%

Cn1cc2c(n1)-c1cc(Cl)ccc1-n1cnc(-c3nc(C(F)(F)F)no3)c1C2 [Compound 122]
pKi [1]: > 7.00 | activation at 0.1 µM [2, 3]: 5 to 20%

COc1ccc2c(c1)-c1nn(C)cc1Cc1c(-c3nc(C)no3)ncn1-2 [Compound 20]
pKi [1]: > 7.00 | activation at 0.1 µM [2, 3]: 5 to 20%

CC(C)c1noc(-c2ncn3c2Cc2cn(C(C)C)nc2-c2cc(Cl)ccc2-3)n1 [Compound 138]
pKi [1]: > 7.00 | activation at 0.1 µM [2, 3]: 20 to 50%

CCn1cc2c(n1)-c1cc(Cl)ccc1-n1cnc(-c3noc(COC4CCCC4)n3)c1C2 [Compound 194]
pKi [1]: > 7.00 | activation at 0.1 µM [2, 3]: 20 to 50%

Clc1ccc2c(c1)-c1nn(CC3CCCO3)cc1Cc1c(-c3noc(C4COCCO4)n3)ncn1-2 (stereo not shown) [Compound 305]
pKi [1]: > 7.00 | activation at 0.1 µM [2, 3]: 5 to 20%

Cc1nc(-c2ncn3c2Cc2cn(C)nc2-c2cc(Cl)ccc2-3)no1 [Compound 140]
pKi [1]: > 7.00 | activation at 0.1 µM [2, 3]: 5 to 20%

COCCn1cc2c(n1)-c1cc(Cl)ccc1-n1cnc(-c3nc(C4CC4)no3)c1C2 [Compound 128]
pKi [1]: > 7.00 | activation at 0.1 µM [2, 3]: 5 to 20%

Cn1cc2c(n1)-c1cc(Cl)ccc1-n1cnc(-c3noc(C4COC4)n3)c1C2 [Compound 223]
pKi [1, 4]: > 7.00 | activation at 0.1 µM [2, 5]: 5 to 20%

Cn1cc2c(n1)-c1cc(Cl)ccc1-n1cnc(-c3noc(C(C)(C)C)n3)c1C2 [Compound 143]
pKi [1]: > 7.00 | activation at 0.1 µM [2, 3]: 5 to 20%

COCCn1cc2c(n1)-c1cc(Cl)ccc1-n1cnc(-c3nc(C(C)C)no3)c1C2 [Compound 111]
pKi [1, 4]: > 7.00 | activation at 0.1 µM [2, 5]: 20 to 50%

CC(C)n1cc2c(n1)-c1cc(Cl)ccc1-n1cnc(-c3noc(C4CC4)n3)c1C2 [Compound 149]
pKi [1]: > 7.00 | activation at 0.1 µM [2, 3]: 20 to 50%

COc1ccc(C#Cc2ncn3c2Cc2cn[nH]c2-c2cc(Cl)ccc2-3)cn1 [Compound 52]
pKi [1]: > 7.00 | activation at 0.1 µM [2, 3]: 5 to 20%

Clc1ccc2c(c1)-c1[nH]ncc1Cc1c(-c3nc(C4CC4)no3)ncn1-2 [Compound 105]
pKi [1]: > 7.00 | activation at 0.1 µM [2, 3]: 20 to 50%

COc1ccc2c(c1)-c1nn(C)cc1Cc1c(-c3nnc(C(F)(F)F)o3)ncn1-2 [Compound 289]
pKi [1]: > 7.00 | activation at 0.1 µM [2, 3]: 5 to 20%

Clc1ccc2c(c1)-c1nn(CC3CCCO3)cc1Cc1c(-c3cnn(Cc4ccccc4)c3)ncn1-2 (stereo not shown) [Compound 230]
pKi [1]: > 7.00 | activation at 0.1 µM [2, 3]: 5 to 20%

COc1ccc2c(c1)-c1nn(CC3COC3)cc1Cc1c(-c3noc(COCC(F)(F)F)n3)ncn1-2 [Compound 314]
pKi [1]: > 7.00 | activation at 0.1 µM [2, 3]: 5 to 20%

COc1ccc2c(c1)-c1nn(C3CCOC3)cc1Cc1c(-c3nc(C4CC4)no3)ncn1-2 (stereo not shown) [Compound 247]
pKi [1]: > 7.00 | activation at 0.1 µM [2, 3]: 20 to 50%

COc1ccc2c(c1)-c1nn(C)cc1Cc1c(-c3noc([C@@H]4CCOC4)n3)ncn1-2 [Compound 256]
pKi [1]: > 7.00 | activation at 0.1 µM [2, 3]: 5 to 20%

COc1ccc2c(c1)-c1nn(C)cc1Cc1c(-c3noc(C(C)C)n3)ncn1-2 [Compound 109]
pKi [1, 4]: > 7.00 | activation at 0.1 µM [2, 5]: 20 to 50%

COc1ccc2c(c1)-c1[nH]ncc1Cc1c(-c3noc(COCC(F)(F)F)n3)ncn1-2 [Compound 174]
pKi [1]: > 7.00 | activation at 0.1 µM [2, 3]: 20 to 50%

COc1ccc2c(c1)-c1nn(Cc3ccccc3)cc1Cc1c(-c3nc(C(C)C)no3)ncn1-2 [Compound 44]
pKi [1]: > 7.00 | activation at 0.1 µM [2, 3]: 20 to 50%

COc1ccc2c(c1)-c1nn(Cc3cccnc3)cc1Cc1c(-c3nc(C(C)C)no3)ncn1-2 [Compound 125]
pKi [1]: > 7.00 | activation at 0.1 µM [2, 3]: 20 to 50%

Cc1nnc(-c2ncn3c2Cc2cn(C)nc2-c2cc(Cl)ccc2-3)o1 [Compound 209]
pKi [1]: > 7.00 | activation at 0.1 µM [2, 3]: 20 to 50%

CCOC(=O)c1ncn2c1Cc1cnoc1-c1cc(Cl)ccc1-2 [Compound 57]
pKi [1, 4]: > 7.00 | activation at 0.1 µM [2, 5]: 5 to 20%

Cn1cc2c(n1)-c1cc(Cl)ccc1-n1cnc(-c3noc(COCC(F)(F)F)n3)c1C2 [Compound 217]
pKi [1]: > 7.00 | activation at 0.1 µM [2, 3]: 20 to 50%

COc1ccc2c(c1)-c1nn(CC3COC3)cc1Cc1c(-c3nc(COC4CCOC4)no3)ncn1-2 (stereo not shown) [Compound 310]
pKi [1]: > 7.00 | activation at 0.1 µM [2, 3]: 20 to 50%
